Consider two molecules from paper PMC12493201, “A biosynthetic pathway for ornithine lipid formation dependent on a GH3 (Gretchen Hagen 3)-like enzyme in planctomycetes” (The Journal of Biological Chemistry, 2025).

This assay concerns the target T1, OlsH (Sinac_1599) (Singulisphaera acidiphila, UniProt L0DAW6).
T1 sequence (L0DAW6 1-526): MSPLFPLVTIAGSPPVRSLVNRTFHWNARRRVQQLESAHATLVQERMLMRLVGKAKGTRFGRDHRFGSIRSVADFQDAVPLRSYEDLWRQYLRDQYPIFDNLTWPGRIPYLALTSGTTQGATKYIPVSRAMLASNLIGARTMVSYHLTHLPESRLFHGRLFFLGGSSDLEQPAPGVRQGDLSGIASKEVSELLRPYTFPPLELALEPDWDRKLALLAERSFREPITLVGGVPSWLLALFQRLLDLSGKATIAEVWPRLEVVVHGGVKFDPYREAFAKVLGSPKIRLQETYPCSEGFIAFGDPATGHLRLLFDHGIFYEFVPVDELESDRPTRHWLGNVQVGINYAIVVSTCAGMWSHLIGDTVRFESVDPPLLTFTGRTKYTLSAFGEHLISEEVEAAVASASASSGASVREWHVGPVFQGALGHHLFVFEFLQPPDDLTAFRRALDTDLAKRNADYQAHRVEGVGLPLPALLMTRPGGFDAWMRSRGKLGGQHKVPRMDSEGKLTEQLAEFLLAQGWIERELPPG
Put plainly: […] N-acyl ornithine formation, TLC / PhosphorImager; empty-vector extract inactive. The assay is classed as biochemical. The conditions noted are these: ATP, Mg2+, Tris pH 7.9, 30 °C, cell-free E. coli extract.

`CCCCCCCCCCCCCCCC(=O)O` [palmitic acid]: the “14C N-acyl ornithine formation, TLC / PhosphorImager; empty-vector extract inact” value ([14C]-ornithine, fatty acid as Triton X-100 micelles) is “Strong acyl ornithine signals were detected with the three non-hydroxylated fatty acids”.

Regarding `NCCC[C@H](N)C(=O)O` [ornithine], under “palmitic acid, labelled compound”, the “14C N-acyl ornithine formation, TLC / PhosphorImager; empty-vector extract inact” value was “Adding all compounds resulted in a solid acyl-ornithine signal”.
